Measured values reported in the kinase profiling compilation of Christmann-Franck et al. (2016).

What was measured:
Assay in all cases: Caliper, Mobility shift assay off-chip
ABL2 (human) = ABL2 (human) (UniProt P42684)
ALK EML4 (human) = ALK EML4 (human) (UniProt Q9HC35+Q9UM73)
AURKC (human) = AURKC (human) (UniProt Q9UQB9)
CAMK1D (human) = CAMK1D (human) (UniProt Q8IU85)
CDC42BPB (human) = CDC42BPB (human) (UniProt Q9Y5S2)
CDC7 (human) = CDC7 (human) (UniProt O00311)
CDK3 (human) = CDK3 (human) (UniProt Q00526)
CDK5 (human) = CDK5 (human) (UniProt Q00535)
CDK7 (human) = CDK7 (human) (UniProt P50613)
CLK2 (human) = CLK2 (human) (UniProt P49760)
CSNK2A1 (human) = CSNK2A1 (human) (UniProt P68400)
EEF2K (human) = EEF2K (human) (UniProt O00418)
EPHA4 (human) = EPHA4 (human) (UniProt P54764)
HIPK1 (human) = HIPK1 (human) (UniProt Q86Z02)
IRAK4 (human) = IRAK4 (human) (UniProt Q9NWZ3)
LTK (human) = LTK (human) (UniProt P29376)
MAPK11 (human) = MAPK11 (human) (UniProt Q15759)
MARK4 (human) = MARK4 (human) (UniProt Q96L34)
MELK (human) = MELK (human) (UniProt Q14680)
NEK1 (human) = NEK1 (human) (UniProt Q96PY6)
PAK3 (human) = PAK3 (human) (UniProt O75914)
PDGFRA (human) = PDGFRA (human) (UniProt P16234)
PHKG2 (human) = PHKG2 (human) (UniProt P15735)
PRKCG (human) = PRKCG (human) (UniProt P05129)
PRKCZ (human) = PRKCZ (human) (UniProt Q05513)
ROS1 (human) = ROS1 (human) (UniProt P08922)
SGK2 (human) = SGK2 (human) (UniProt Q9HBY8)
SRPK3 (human) = SRPK3 (human) (UniProt Q9UPE1)
STK38L (human) = STK38L (human) (UniProt Q9Y2H1)
STK4 (human) = STK4 (human) (UniProt Q13043)
TNK1 (human) = TNK1 (human) (UniProt Q13470)
DDR2 (human) = DDR2 (human) (UniProt Q16832)
FRK (human) = FRK (human) (UniProt P42685)
SRC (human) = SRC (human) (UniProt P12931)

Chain of ALK EML4 (human) (Q9HC35 whole entry, looked up): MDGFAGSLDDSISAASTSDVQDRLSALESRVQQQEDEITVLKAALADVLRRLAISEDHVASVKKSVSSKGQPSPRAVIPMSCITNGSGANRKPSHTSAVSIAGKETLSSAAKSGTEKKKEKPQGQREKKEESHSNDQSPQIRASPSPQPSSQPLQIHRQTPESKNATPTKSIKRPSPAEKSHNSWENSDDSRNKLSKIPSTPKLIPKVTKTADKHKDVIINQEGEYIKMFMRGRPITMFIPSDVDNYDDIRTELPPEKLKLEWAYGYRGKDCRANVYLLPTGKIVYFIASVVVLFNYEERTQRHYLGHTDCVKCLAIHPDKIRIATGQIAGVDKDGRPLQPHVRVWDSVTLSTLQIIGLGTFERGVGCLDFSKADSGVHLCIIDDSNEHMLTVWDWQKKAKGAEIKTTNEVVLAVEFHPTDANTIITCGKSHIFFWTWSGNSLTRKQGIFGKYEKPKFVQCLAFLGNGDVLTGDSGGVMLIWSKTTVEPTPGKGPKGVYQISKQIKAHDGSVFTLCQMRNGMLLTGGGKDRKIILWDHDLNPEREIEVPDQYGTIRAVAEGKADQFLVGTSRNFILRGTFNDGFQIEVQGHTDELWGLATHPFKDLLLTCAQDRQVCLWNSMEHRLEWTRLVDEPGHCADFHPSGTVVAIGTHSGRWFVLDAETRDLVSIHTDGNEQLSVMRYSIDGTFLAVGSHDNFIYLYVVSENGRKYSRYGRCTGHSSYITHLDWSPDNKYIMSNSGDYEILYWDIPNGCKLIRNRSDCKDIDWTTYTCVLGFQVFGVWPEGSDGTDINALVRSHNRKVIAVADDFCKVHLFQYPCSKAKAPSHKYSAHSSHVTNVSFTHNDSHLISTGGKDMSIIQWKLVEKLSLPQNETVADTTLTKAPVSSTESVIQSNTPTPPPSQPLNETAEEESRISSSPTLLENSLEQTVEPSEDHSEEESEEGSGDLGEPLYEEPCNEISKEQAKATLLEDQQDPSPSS
Chain of ALK EML4 (human) (Q9UM73 whole entry, looked up): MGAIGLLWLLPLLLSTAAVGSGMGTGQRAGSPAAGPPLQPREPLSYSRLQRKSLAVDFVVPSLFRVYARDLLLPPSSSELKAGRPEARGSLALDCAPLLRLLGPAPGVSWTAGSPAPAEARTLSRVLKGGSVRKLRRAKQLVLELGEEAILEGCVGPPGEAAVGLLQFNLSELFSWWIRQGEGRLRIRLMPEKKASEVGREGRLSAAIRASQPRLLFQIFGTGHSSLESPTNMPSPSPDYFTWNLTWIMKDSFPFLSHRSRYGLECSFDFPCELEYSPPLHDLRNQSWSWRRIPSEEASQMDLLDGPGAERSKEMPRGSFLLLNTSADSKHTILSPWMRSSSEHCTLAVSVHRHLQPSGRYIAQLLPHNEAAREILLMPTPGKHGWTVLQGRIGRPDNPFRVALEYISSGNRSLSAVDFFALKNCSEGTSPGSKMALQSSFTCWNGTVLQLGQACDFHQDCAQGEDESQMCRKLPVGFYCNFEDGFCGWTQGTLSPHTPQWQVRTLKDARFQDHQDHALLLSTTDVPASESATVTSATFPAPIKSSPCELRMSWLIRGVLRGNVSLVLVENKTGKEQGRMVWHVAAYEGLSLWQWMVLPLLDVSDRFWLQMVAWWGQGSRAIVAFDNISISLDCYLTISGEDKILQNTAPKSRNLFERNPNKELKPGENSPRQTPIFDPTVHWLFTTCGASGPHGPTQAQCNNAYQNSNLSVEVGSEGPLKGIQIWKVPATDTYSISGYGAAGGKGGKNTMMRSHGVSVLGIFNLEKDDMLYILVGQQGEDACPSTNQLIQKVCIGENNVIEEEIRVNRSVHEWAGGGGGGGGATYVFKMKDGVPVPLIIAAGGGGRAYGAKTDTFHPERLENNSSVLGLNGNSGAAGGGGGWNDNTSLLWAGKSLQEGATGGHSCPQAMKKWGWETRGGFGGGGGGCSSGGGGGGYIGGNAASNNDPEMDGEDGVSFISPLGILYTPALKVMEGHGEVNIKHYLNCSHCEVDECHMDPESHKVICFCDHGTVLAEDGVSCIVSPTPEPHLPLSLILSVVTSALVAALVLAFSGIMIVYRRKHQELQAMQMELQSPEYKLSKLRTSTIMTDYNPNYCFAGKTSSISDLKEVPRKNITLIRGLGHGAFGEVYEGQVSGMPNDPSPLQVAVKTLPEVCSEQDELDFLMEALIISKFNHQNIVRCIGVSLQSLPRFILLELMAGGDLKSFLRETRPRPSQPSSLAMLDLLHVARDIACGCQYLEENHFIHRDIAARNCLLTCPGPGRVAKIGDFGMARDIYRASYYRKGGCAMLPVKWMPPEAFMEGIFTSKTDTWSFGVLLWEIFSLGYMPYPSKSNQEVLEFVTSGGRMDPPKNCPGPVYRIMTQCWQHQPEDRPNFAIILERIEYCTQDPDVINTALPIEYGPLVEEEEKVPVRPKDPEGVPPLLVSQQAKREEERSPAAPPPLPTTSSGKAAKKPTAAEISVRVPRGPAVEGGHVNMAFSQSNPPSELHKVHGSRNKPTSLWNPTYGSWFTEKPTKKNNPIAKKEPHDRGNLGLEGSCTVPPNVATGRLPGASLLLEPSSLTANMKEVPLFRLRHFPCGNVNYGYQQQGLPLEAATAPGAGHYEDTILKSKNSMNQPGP
Chain of CDK5 (human) (Q00535 whole entry, looked up): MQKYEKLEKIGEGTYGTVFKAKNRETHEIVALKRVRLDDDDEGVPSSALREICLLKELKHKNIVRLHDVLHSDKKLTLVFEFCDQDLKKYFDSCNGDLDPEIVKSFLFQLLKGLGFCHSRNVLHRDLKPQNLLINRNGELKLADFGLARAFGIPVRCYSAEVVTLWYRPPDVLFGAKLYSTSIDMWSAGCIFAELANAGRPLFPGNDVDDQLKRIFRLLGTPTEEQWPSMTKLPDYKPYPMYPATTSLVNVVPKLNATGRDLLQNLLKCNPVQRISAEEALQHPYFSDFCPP
Chain of CAMK1D (human) (Q8IU85 whole entry, looked up): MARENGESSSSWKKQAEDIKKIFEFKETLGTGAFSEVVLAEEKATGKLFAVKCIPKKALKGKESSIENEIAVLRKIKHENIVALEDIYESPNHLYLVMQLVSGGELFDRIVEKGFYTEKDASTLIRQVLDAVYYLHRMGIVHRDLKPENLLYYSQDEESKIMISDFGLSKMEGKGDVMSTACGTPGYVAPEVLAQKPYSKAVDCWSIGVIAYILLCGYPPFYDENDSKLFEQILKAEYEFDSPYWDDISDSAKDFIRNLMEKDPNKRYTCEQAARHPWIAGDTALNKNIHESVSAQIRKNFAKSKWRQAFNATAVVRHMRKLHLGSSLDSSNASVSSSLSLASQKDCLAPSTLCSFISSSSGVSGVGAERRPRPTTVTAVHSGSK
Chain of PAK3 (human) (O75914 whole entry, looked up): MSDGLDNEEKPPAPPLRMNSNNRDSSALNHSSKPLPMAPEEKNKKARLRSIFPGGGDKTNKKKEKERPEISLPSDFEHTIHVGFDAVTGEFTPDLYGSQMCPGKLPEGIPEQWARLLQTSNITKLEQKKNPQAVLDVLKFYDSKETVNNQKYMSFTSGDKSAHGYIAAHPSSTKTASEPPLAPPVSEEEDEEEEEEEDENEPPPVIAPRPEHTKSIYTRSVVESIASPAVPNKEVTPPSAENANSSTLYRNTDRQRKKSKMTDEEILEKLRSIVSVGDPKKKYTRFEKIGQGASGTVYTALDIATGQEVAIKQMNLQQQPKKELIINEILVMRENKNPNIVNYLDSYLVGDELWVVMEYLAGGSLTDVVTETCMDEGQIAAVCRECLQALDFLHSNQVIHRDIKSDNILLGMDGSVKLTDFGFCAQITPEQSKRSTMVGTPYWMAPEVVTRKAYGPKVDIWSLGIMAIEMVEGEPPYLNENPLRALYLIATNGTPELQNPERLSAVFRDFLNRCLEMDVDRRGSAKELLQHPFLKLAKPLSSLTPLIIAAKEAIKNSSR
Chain of STK4 (human) (Q13043 whole entry, looked up): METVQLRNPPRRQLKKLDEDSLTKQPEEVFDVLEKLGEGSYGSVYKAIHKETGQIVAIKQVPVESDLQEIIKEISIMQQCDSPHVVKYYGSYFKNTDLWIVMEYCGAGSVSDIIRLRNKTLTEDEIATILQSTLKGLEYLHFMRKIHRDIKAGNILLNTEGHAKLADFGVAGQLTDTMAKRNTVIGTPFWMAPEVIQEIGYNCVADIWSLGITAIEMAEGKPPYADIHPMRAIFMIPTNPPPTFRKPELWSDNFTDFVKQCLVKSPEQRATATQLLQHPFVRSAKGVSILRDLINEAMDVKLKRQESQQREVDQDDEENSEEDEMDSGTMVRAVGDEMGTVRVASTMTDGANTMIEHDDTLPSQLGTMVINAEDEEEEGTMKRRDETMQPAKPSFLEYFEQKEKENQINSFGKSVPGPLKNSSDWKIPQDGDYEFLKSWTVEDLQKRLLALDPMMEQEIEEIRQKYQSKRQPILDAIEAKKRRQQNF
Chain of CDC7 (human) (O00311 whole entry, looked up): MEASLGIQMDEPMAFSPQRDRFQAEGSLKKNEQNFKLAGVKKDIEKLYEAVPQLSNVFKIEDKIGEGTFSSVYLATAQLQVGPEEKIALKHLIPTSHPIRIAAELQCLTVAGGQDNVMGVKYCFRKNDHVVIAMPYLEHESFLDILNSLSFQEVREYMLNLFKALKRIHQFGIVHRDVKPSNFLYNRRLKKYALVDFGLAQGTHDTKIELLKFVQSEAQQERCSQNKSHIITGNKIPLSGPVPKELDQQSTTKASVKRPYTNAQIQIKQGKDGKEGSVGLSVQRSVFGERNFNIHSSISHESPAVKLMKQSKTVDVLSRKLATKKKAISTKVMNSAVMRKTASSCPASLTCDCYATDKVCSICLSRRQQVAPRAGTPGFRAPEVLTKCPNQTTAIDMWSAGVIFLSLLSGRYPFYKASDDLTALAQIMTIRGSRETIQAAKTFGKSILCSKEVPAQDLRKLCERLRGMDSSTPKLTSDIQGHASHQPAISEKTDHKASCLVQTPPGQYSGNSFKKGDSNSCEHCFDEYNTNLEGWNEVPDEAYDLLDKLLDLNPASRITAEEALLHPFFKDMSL

With `CNC(=O)c1cc(Oc2ccc(NC(=O)Nc3ccc(Cl)c(C(F)(F)F)c3)cc2)ccn1` the inhibition (ABL2 (human); compound 0.02 µM) was -2.8%, the inhibition (ABL2 (human); compound 0.2 µM) was 3.1% and the inhibition (ALK EML4 (human); compound 0.02 µM) was -6.5%. The inhibition (ALK EML4 (human); compound 0.2 µM) was 2.8%, the inhibition (AURKC (human); compound 0.02 µM) was 0% and the inhibition (AURKC (human); compound 0.2 µM) was 11.8%. It also gave an inhibition (CAMK1D (human); compound 0.02 µM) of -6.7%, an inhibition (CAMK1D (human); compound 0.2 µM) of 3.1% and an inhibition (CDC42BPB (human); compound 0.02 µM) of -3.1%. For the same compound, the inhibition (CDC42BPB (human); compound 0.2 µM) was 0.8%, the inhibition (CDC7 (human); compound 0.02 µM) was -4.3% and the inhibition (CDC7 (human); compound 0.2 µM) was -4.2%. The inhibition (CDK3 (human); compound 0.02 µM) was -4.1%, the inhibition (CDK3 (human); compound 0.2 µM) was -2.4% and the inhibition (CDK5 (human); compound 0.02 µM) was -3.5%. For the same compound, the inhibition (CDK5 (human); compound 0.2 µM) was -3.6%, the inhibition (CDK7 (human); compound 0.02 µM) was -5.5% and the inhibition (CDK7 (human); compound 0.2 µM) was -7%. For the same compound, the inhibition (CLK2 (human); compound 0.02 µM) was -0.7%, the inhibition (CLK2 (human); compound 0.2 µM) was -2.1% and the inhibition (CSNK2A1 (human); compound 0.02 µM) was -2%. For the same compound, the inhibition (CSNK2A1 (human); compound 0.2 µM) was 0.3%, the inhibition (EEF2K (human); compound 0.02 µM) was -3.9% and the inhibition (EEF2K (human); compound 0.2 µM) was 0%. The inhibition (EPHA4 (human); compound 0.02 µM) was -1.7%, the inhibition (EPHA4 (human); compound 0.2 µM) was 22% and the inhibition (HIPK1 (human); compound 0.02 µM) was -1.4%. It also gave an inhibition (HIPK1 (human); compound 0.2 µM) of 3.9%, an inhibition (IRAK4 (human); compound 0.02 µM) of -5.9% and an inhibition (IRAK4 (human); compound 0.2 µM) of -4.6%. For the same compound, the inhibition (LTK (human); compound 0.02 µM) was -2.2%, the inhibition (LTK (human); compound 0.2 µM) was 7.4% and the inhibition (MAPK11 (human); compound 0.02 µM) was 10.4%. The inhibition (MAPK11 (human); compound 0.2 µM) was 62.3%, the inhibition (MARK4 (human); compound 0.02 µM) was 1.4% and the inhibition (MARK4 (human); compound 0.2 µM) was 1.6%. The inhibition (MELK (human); compound 0.02 µM) was -4.3%, the inhibition (MELK (human); compound 0.2 µM) was -1.1% and the inhibition (NEK1 (human); compound 0.02 µM) was -5.2%. For the same compound, the inhibition (NEK1 (human); compound 0.2 µM) was -6.3%, the inhibition (PAK3 (human); compound 0.02 µM) was -1.4% and the inhibition (PAK3 (human); compound 0.2 µM) was 2.1%. The inhibition (PDGFRA (human); compound 0.02 µM) was 97.3%, the inhibition (PDGFRA (human); compound 0.2 µM) was 105% and the inhibition (PHKG2 (human); compound 0.02 µM) was -3.1%. For the same compound, the inhibition (PHKG2 (human); compound 0.2 µM) was -2.3%, the inhibition (PRKCG (human); compound 0.02 µM) was -2.1% and the inhibition (PRKCG (human); compound 0.2 µM) was 16.8%. The inhibition (PRKCZ (human); compound 0.02 µM) was 0%, the inhibition (PRKCZ (human); compound 0.2 µM) was 11.3% and the inhibition (ROS1 (human); compound 0.2 µM) was 1.3%. It also gave an inhibition (SGK2 (human); compound 0.02 µM) of -0.9%, an inhibition (SGK2 (human); compound 0.2 µM) of 8.4% and an inhibition (SRPK3 (human); compound 0.02 µM) of -0.5%. For the same compound, the inhibition (SRPK3 (human); compound 0.2 µM) was 7.9%, the inhibition (STK38L (human); compound 0.02 µM) was -3.6% and the inhibition (STK38L (human); compound 0.2 µM) was 4.2%. The inhibition (STK4 (human); compound 0.02 µM) was -5.1%, the inhibition (STK4 (human); compound 0.2 µM) was -3.5% and the inhibition (TNK1 (human); compound 0.02 µM) was -0.4%. The inhibition (TNK1 (human); compound 0.2 µM) was 19%.

`Cc1ccc(Nc2nccc(N(C)c3ccc4c(C)n(C)nc4c3)n2)cc1S(N)(=O)=O` was tested, and the inhibition (ABL2 (human); compound 0.02 µM) was 2.6%, the inhibition (ABL2 (human); compound 0.2 µM) was 27.6% and the inhibition (ALK EML4 (human); compound 0.02 µM) was -0.3%. It also gave an inhibition (ALK EML4 (human); compound 0.2 µM) of 6.8%, an inhibition (AURKC (human); compound 0.02 µM) of -0.4% and an inhibition (AURKC (human); compound 0.2 µM) of 21.5%. It also gave an inhibition (CAMK1D (human); compound 0.02 µM) of -0.2%, an inhibition (CAMK1D (human); compound 0.2 µM) of 2.9% and an inhibition (CDC42BPB (human); compound 0.02 µM) of 1.8%. The inhibition (CDC42BPB (human); compound 0.2 µM) was 2.9%, the inhibition (CDC7 (human); compound 0.02 µM) was -1.5% and the inhibition (CDC7 (human); compound 0.2 µM) was -3.3%. The inhibition (CDK3 (human); compound 0.02 µM) was -2.4%, the inhibition (CDK3 (human); compound 0.2 µM) was -4.3% and the inhibition (CDK5 (human); compound 0.02 µM) was -0.3%. It also gave an inhibition (CDK5 (human); compound 0.2 µM) of 0.9%, an inhibition (CDK7 (human); compound 0.02 µM) of -1.6% and an inhibition (CDK7 (human); compound 0.2 µM) of -2.2%. For the same compound, the inhibition (CLK2 (human); compound 0.02 µM) was 6.2%, the inhibition (CLK2 (human); compound 0.2 µM) was 7.2% and the inhibition (CSNK2A1 (human); compound 0.02 µM) was -3%. It also gave an inhibition (CSNK2A1 (human); compound 0.2 µM) of -2.4%, an inhibition (DDR2 (human); compound 0.02 µM) of 34.2% and an inhibition (DDR2 (human); compound 0.2 µM) of 85%. It also gave an inhibition (EEF2K (human); compound 0.02 µM) of 2.9%, an inhibition (EEF2K (human); compound 0.2 µM) of 4.7% and an inhibition (EPHA4 (human); compound 0.02 µM) of -4.7%. It also gave an inhibition (EPHA4 (human); compound 0.2 µM) of 0.2%, an inhibition (FRK (human); compound 0.02 µM) of 10.3% and an inhibition (FRK (human); compound 0.2 µM) of 47.3%. For the same compound, the inhibition (HIPK1 (human); compound 0.02 µM) was 2.6%, the inhibition (HIPK1 (human); compound 0.2 µM) was 7.3% and the inhibition (IRAK4 (human); compound 0.02 µM) was -4.3%. The inhibition (IRAK4 (human); compound 0.2 µM) was -3.9%, the inhibition (LTK (human); compound 0.02 µM) was 5.1% and the inhibition (LTK (human); compound 0.2 µM) was 11.9%. The inhibition (MAPK11 (human); compound 0.02 µM) was -6.7%, the inhibition (MAPK11 (human); compound 0.2 µM) was 0.9% and the inhibition (MARK4 (human); compound 0.02 µM) was -4.1%. For the same compound, the inhibition (MARK4 (human); compound 0.2 µM) was -6.3%, the inhibition (MELK (human); compound 0.02 µM) was 8.1% and the inhibition (MELK (human); compound 0.2 µM) was 12.4%. It also gave an inhibition (NEK1 (human); compound 0.02 µM) of -4.7%, an inhibition (NEK1 (human); compound 0.2 µM) of 3.5% and an inhibition (PAK3 (human); compound 0.02 µM) of 5.7%. For the same compound, the inhibition (PAK3 (human); compound 0.2 µM) was 2.6%, the inhibition (PDGFRA (human); compound 0.02 µM) was 65.6% and the inhibition (PDGFRA (human); compound 0.2 µM) was 95.6%. For the same compound, the inhibition (PHKG2 (human); compound 0.02 µM) was -3.5%, the inhibition (PHKG2 (human); compound 0.2 µM) was -1.8% and the inhibition (PRKCG (human); compound 0.02 µM) was 4%. The inhibition (PRKCG (human); compound 0.2 µM) was -6.3%, the inhibition (PRKCZ (human); compound 0.02 µM) was 2.5% and the inhibition (PRKCZ (human); compound 0.2 µM) was -1.1%. For the same compound, the inhibition (ROS1 (human); compound 0.02 µM) was 17.8%, the inhibition (ROS1 (human); compound 0.2 µM) was 69.7% and the inhibition (SGK2 (human); compound 0.02 µM) was 5.5%. For the same compound, the inhibition (SGK2 (human); compound 0.2 µM) was -0.1%, the inhibition (SRC (human); compound 0.02 µM) was 8.4% and the inhibition (SRC (human); compound 0.2 µM) was 42.7%. It also gave an inhibition (SRPK3 (human); compound 0.02 µM) of -1.1%, an inhibition (SRPK3 (human); compound 0.2 µM) of 2.1% and an inhibition (STK38L (human); compound 0.02 µM) of -1.5%. The inhibition (STK38L (human); compound 0.2 µM) was 6.6%, the inhibition (STK4 (human); compound 0.02 µM) was -4.7% and the inhibition (STK4 (human); compound 0.2 µM) was -5.1%. For the same compound, the inhibition (TNK1 (human); compound 0.02 µM) was 1.8% and the inhibition (TNK1 (human); compound 0.2 µM) was 12.2%.
